# Like-named read-outs stand apart in the source and are kept apart here.
# Key:
# [1] = cited from earlier work
# [2] = cited from earlier work; for Cmax / AUC0-24 h: Caucasians 18-60 years of age; for Cmax: in ng/mL; for AUC0-24 h: in ng·h/mL
# [3] = cited from earlier work; for Cmax / Tmax: arterial
# [4] = Pharmacokinetics of inhaled (nebulized) esketamine versus IV infusion, arterial concentrations; details: comparison across Examples 3 and 4, not within the same individuals
# [5] = cited from earlier work; remark: listed apart in the source
# clinical = details: human, in vivo
# [6] = IN administration, based upon the models
# [7] = inhalation of 0.35 mg/kg esketamine
# [8] = inhalation of 0.5 mg/kg esketamine
# [9] = inhalation of 0.7 mg/kg esketamine
smiles,measurement,setting,value
Cc1cccc([C@H](C)c2cnc[nH]2)c1C [dexmedetomidine],"disposition, intravenous versus intranasal administration",[1]; 2-compartment disposition model,similar
same,intranasal bioavailability,[1]; both atomization and drops,~40%
same,uptake kinetics of atomized and intranasal relative to IV,"[1]; in vivo, iv",slower update kinetics
same,absorption rate constant (kabs),[1]; intranasal by atomizer,0.857 h⁻¹
same,mean transit time (delay in uptake),[1]; intranasal by atomizer,0.176 h
same,absorption rate constant (kabs),[1]; intranasal by drops,0.725 h⁻¹
same,mean transit time (delay in uptake),[1]; intranasal by drops,0.163 h
"CN[C@]1(c2ccccc2Cl)CCCCC1=O [esketamine, S-ketamine]",Cmax,[2]; 28 mg IN esketamine,43.8
same,AUC0-24 h,[2]; 28 mg IN esketamine,147.3
same,Cmax,[2]; 56 mg IN esketamine,72.5
same,AUC0-24 h,[2]; 56 mg IN esketamine,254.7
same,Cmax,[2]; 84 mg IN esketamine,101
same,AUC0-24 h,[2]; 84 mg IN esketamine,362.2
same,fraction of dose absorbed through the nasal cavity,[2]; [6],~54%
same,fraction of dose swallowed,[2]; [6],46%
same,swallowed percentage reaching the systemic circulation after first-pass metabolism,[2]; IN administration,18.6%
same,mean absorption time,[2]; absorption through the gut,2.02 h
same,mean absorption time,[2]; absorption through the nasal mucosa,0.333 h
same,absolute bioavailability,[2]; intranasal,~50%
same,fraction of dose directly absorbed through the alveoli,[3]; INH administration,70%
same,"fraction of dose travelling via a slower pathway (lung, GI or oropharyngeal absorption)",[3]; INH administration,30%
same,rate constant of the slow transit,[3]; INH administration,0.05 min⁻¹
same,half-life of the slow transit,"[3]; INH administration, from rate constant",13 min
same,dose-dependent reduction in bioavailability,"[3]; INH, at the higher doses",20%
same,modeled F value (extent of bioavailability),"[3]; across INH doses, multicompartment model",0.70
same,bioavailability,[3]; following INH administration,70%
same,fraction metabolized to noresketamine,[3]; in vivo,78%
same,Cmax,[3]; [7],128 ng/mL
same,Tmax,[3]; [7],22 min
same,Cmax,[3]; [8],180 ng/mL
same,Tmax,[3]; [8],15 min
same,Cmax,[3]; [9],227 ng/mL
same,Tmax,[3]; [9],25 min
same,absorption following INH versus IN,[4],more rapid
C=CCN1CC[C@]23c4c5ccc(O)c4O[C@H]2C(=O)CC[C@@]3(O)[C@H]1C5 [naloxone],bioavailability,[5]; IM/SC dose,98.3%
same,bioavailability,[5]; nasal spray,40-55%
same,"K (elimination rate constant), best-fit value","0.4 mg IV, single elimination model",12.16 h⁻¹
same,kabs (absorption rate constant),"IN doses of 1, 2 and 4 mg, best fit of one-phase association and dissociation model",4.47 h⁻¹
same,"elimination rate-constant, mean value","IN doses of 1, 2 and 4 mg, model fit",0.82 h⁻¹
same,Cmax,clinical; 1 mg,2.1 ng/mL
same,Cmax,clinical; 2 mg,4.3 ng/mL
same,Cmax,clinical; 4 mg,10.1 ng/mL
same,half-life,"clinical; iv, 0.4 mg",3.4 min
N[C@]1(c2ccccc2Cl)CCCCC1=O [noresketamine],Cmax,[2]; 28 mg IN esketamine,59.1
same,AUC0-24 h,[2]; 28 mg IN esketamine,274.4
same,Cmax,[2]; 56 mg IN esketamine,119.7
same,AUC0-24 h,[2]; 56 mg IN esketamine,516.3
same,Cmax,[2]; 84 mg IN esketamine,180
same,AUC0-24 h,[2]; 84 mg IN esketamine,758
same,Cmax,[3]; [7],52 ng/mL
same,Tmax,[3]; [7],63 min
same,Cmax,[3]; [8],97 ng/mL
same,Tmax,[3]; [8],48 min
same,Cmax,[3]; [9],153 ng/mL
same,Tmax,[3]; [9],41 min
